Laboratory results: patent publication EP1306084A1, “Compositions for the control of parasitic infestations in fish” (Alpharma AS, priority 1998, dated 1999)

Tests used:
[1] = Field trial: weight and length of recaptured tagged fish (Example 3); format: in vivo, wild sea trout (Salmo trutta); conditions: treated fish caught June 20 to August 7
Method: About 2,000 wild sea trout (Salmo trutta) were divided into two groups and marked with Carlin tags in two different colours (yellow or red) so that individuals of the groups could easily be distinguished from each other when observed in the water. The group with yellow Carlin tags were given feed containing hexaflumuron. The dose was about 3 mg of hexaflumuron per fish per day for six days. The feeding was done the last week before they were transferred to the sea in the beginning of May. The control group had red Carlin tags and was fed ordinary fish feed until sea transfer. Both groups of fish were transferred to the sea 200 metres from the river mouth of the Bondhus River in Hordaland in Norway. From sea transfer (May 8) until August 7, neighbouring rivers and estuaries round these rivers were examined every week, using fishing by application of high voltage and net fishing.
The following average lengths and weights were recorded for the fish that were caught during the period: • Control fish: Average weight 50.4 ± 48.8 grams. Average length 19.7 ± 13.3 cm. • Treated fish: Average weight 87.1 ± 69.6 grams. Average length 35.9 ± 19.1 cm.

sea lice [2] = experiment: Injection of 9 active substances, protective effect against sea lice (Example 8); format: in vivo, salmon smolt; conditions: for lice on average: T3, 70 days after injection, about 50 mg/kg, control group 5.6
Method: (§1) The treatment dosage was 9 mg hexaflumuron per kg fish per day for 10 days. This is indicated by "Groups/Timepoints" in the figure; • Figure 2 relates to the trial in Example 2 that was carried out on Atlantic salmon (Salmo salar). […] The treatment dosage varied between 3 - 9 mg hexaflumuron and 9- 12 mg fluazuron per kg fish per day for 7 days. This is indicated by "Groups/Timepoints" in the diagram. […] The treated groups are compared to an untreated control group. The treatment dosage was 4 mg hexaflumuron per kg fish per day for 5 days. This is indicated by "Groups/Timepoints" in the figure. Cage 2 = controls, Cage 4-6 = treated groups, 16.6.97 = time point for sea transfer and 5.8.97= controls treated by bathing with deltamethrin; • Figure 4 relates to the trial described in Example 5, which was carried out on sea trout (Salmo trutta). […] The treated groups are compared with an untreated control group. The dosage for oral treatment was 4 mg hexaflumuron per kilo fish per day for 5 days, and 5 ppm hexaflumuron as a 30 minute bath treatment. This is indicated by "Groups/Timepoints" in the figure. Cage 1.4 = Controls, cage 1.3 = Oral treatment, cage 1.2 = Bath treatment. […] The treated groups are compared with an untreated control group, and one group that has been treated orally with teflubenzuron (10 mg/kg of teflubenzuron per kg fish per day for 7 days). The dosage for oral treatment was 5.6 mg hexaflumuron per kg fish per day for 7 days, and 5 ppm hexaflumuron as a 30 minute bath treatment. […] End of treatment: 22.10.97, Sea transfer: 23.10.97. T1 = 3 weeks post end of treatment, T2 = 5 weeks post end of treatment, T3 = 9 weeks post end of treatment, T4 = 12 weeks post end of treatment; • Figure 6 relates to the trial in Example 6 at time points 4-6, with the same trial parameters as for Figure 5. T5 = 15 weeks post end of treatment, T6 = 17 weeks post end of treatment. Cage 3 and 4 were treated by bath with deltamethrin after sea lice counting at T4 (12.01.98); • Figure 7 relates to the trial described in Example 7 where salmon were injected on 17.12.97 with two formulations (groups L and R, respectively) of hexaflumuron and a vaccine formulation without hexaflumuron (control). […] The vaccinated fish was transferred to sea water on 09.01.98; • Figure 8 summarises the trial of Example 8 where salmon smolts were injected with 9 different active substances on 08.07.98. Only results for Moxidectin (Mox.), Lufenuron (Luf.) and hexaflumuron in Apoject 1-Fural (Hex.Apo) and in animal oil (Hex.oil) are shown, and • Figure 9 summarises the trial described in Example 10 where salmon were injected on 03.12.97 with 3 different formulations of hexaflumuron (Hexa 1, Hexa 2 and Hexa 3). The fish were transferred to sea water at T0.
In this trial 9 different active substances were tested for protective effect against sea lice. 1,200 salmon smolt were, prior the start of the trial, vaccinated with a commercial vaccine, ALPHA JECT 5100.
One week after sea water transfer the salmon was divided into 12 groups and injected with different formulations of the 9 different active substances. In parallel with the 12 groups, a 13th group comprising 50 fish of the same origin and size was injected with a saline (PBS) solution without active substance. This group served as negative control/reference group in respect of sea lice infestations. The groups were marked by fin cutting and distributed randomly into 3 cages.
The active substances that were used as injection were hexaflumuron, buprofezin, diflubenzuron, fluazuron, lufenuron, ivermectin, doramectin, moxidectin and milbemycin oxime, respectively. All the fish were injected with 0.2 ml of the various injection formulations. Hexaflumuron, buprofezin, fluazuron, lufenuron and diflubenzuron were administered at a dosage of about 50 mg/kg whereas ivermectin, doramectin and moxidectin were administered at a dosage of 0.2 mg/kg (recommended dosage for mammals). […]

sea lice [3] = experiment: Oral treatment (coated feed / Akvaletter) of naturally sea lice infected salmon in minicages (Example 2); format: in vivo, Atlantic salmon (Salmo salar)
Method: as §1, with “T0. […]” for “T0.”

[4] = Chemical analysis of muscle/skin tissue after oral treatment (Example 6); format: in vivo, Atlantic salmon (Salmo salar); conditions: atlantic salmon, 5.6 mg/kg, five fish, read-out: average concentration of hexaflumuron in muscle/skin tissue
Method: Two days after oral treatment had been completed and at timepoint 3 (65 days after completed medication), muscle/skin tissue from five fish in group 1 was chemically analysed to check the concentration of hexaflumuron. The average concentration of hexaflumuron two days after completed medication was 4.4 µg/g tissue. 65 days after, the average concentration level was 1.2 µg/g tissue.

SMILES: O=C(NC(=O)c1c(F)cccc1F)Nc1cc(Cl)c(OC(F)(F)C(F)F)c(Cl)c1 [hexaflumuron]
- Average length ([1]; control fish 19.7 ± 13.3): 35.9 ± 19.1 cm
- Average weight ([1]; control fish 50.4 ± 48.8): 87.1 ± 69.6 grams
- protection against sea lice (sea lice [2]; T2, 40 days after injection, hexaflumuron, lufenuron about 50 mg/kg, moxidectin 0.2 mg/kg): showed protection
- lice on average (sea lice [2]; formulated in Apoject 1-Fural): 0
- lice on average (sea lice [2]; formulated in animal oil): 0.8
- protection against sea lice (sea lice [2]; T3, hexaflumuron in an aqueous suspension (PBS)): no protection
- number of sea lice versus control group (sea lice [2]; T8 (218 days after injection), hexaflumuron in Apoject 1-Fural, animal oil): significantly lower
- significant protection against sea lice until and including T10, time after injection (sea lice [2]; hexaflumuron formulated in Apoject 1-Fural or in animal oil): 9 months
- prophylactic effect against sea lice (sea lice [2]; two groups of fish injected with hexaflumuron): ≤ 10 months
- reduced the number of lice as compared to the control treatment (sea lice [3]; all groups treated with hexaflumuron, 3.0-9.0 mg per day, 7 days, 8.0 - 9.8°C): more than 70%
- reduction of sensitive chalimus and pre-adult stages (sea lice [3]; groups given the highest dosage (9.0 mg per day, 7 days)): > 99%
- reduction of sensitive chalimus and pre-adult stages (sea lice [3]; hexaflumuron groups, 3.0-9.0 mg per day, 7 days): > 90%
- concentration at 1560 h ([4]; 65 days after completed oral medication): 1200 ng/g
- concentration at 48 h ([4]; two days after completed oral medication (5.6 mg per kg, 7 days)): 4400 ng/g
